Laboratory results: patent publication US8592483B2, “Method for treating schizophrenia” (Sucampo AG, priority 2011, dated 2013)

Experiments:
[1] = test system: PCP-disrupted PPI response in rats; assay: PCP-disrupted PPI response in rats (schizophrenia model), intravenous administration; assay type: in vivo, Male Wistar rats; conditions: PCP 1.5 mg/kg s.c.; for % PPI (Mean ± SEM): 0.5 mg/kg intravenous, 15 min before PPI (immediately before PCP), pre-pulse 60 dB, startle 110 dB; for effect on PCP-disrupted PPI response: intravenous administration 15 min before PPI
Protocol: Male Wistar rats (n=135) (200-300 g) were used. Animals are housed at a standard temperature (22±1° C.) and in a light-controlled environment (lights on from 7 am to 8 pm) with ad libitum access to food and water. Animals are treated with Phencyclidine (PCP) at 1.5 mg/kg, s.c., and tested in Pre-Pulse Inhibition (PPI) 15 min later. Intravenous administration of Compound A ((−)-7-[(1R,2R)-2-(4,4-difluoro-3-oxooctyl)-5-oxocyclopentyl]heptanoic acid), Compound B ((+)-isopropyl (Z)-7-[(1R,2R,3R,5S)-3,5-dihydroxy-2-(3-oxodecyl)cyclopentyl]hept-5-enoate) and corresponding vehicle was done 15 min before PPI, which means each compound or vehicle was administered immediately before PCP injection.
(§1) PPI tests were conducted in standard startle chambers (SR-LAB Startle Response system, San Diego Instruments, USA). Before the PPI testing, the animals were habituated to handling. On the day of PPI testing, the animals were placed in the chamber and allowed to habituate for a period of 300 s. After habituation period, the rats received 12 startle trials, 12 no-stimulus trials, and 12 trials of the pre-pulse/startle trials (3×12 trials). The startle trials consists of single 110 dB white noise burst lasting 20 ms. The PPI trials consist of a pre-pulse (20 ms burst of white noise with intensities of 60 dB) followed 100 ms later by a startle stimulus (110 dB, 20 ms white noise). During the no-stimulus trial, no startle noise is presented. The resulting movement of the rat in the startle chamber is measured during 100 ms after startle stimulus onset. Basal startle amplitude is determined as the mean amplitude of the 12 startle trials. % PPI is calculated according to the formula 100−100%×(PP/P110), in which PP is the mean of the 12 pre-pulse inhibition trials (i.e., for each individual pre-pulse intensity), and P110 is the basal startle amplitude. The animals are treated with PCP s.c. and then tested in PPI 15 min later.

[2] = test system: PCP-disrupted PPI response in rats; assay: PCP-disrupted PPI response in rats, oral administration; assay type: in vivo, Male Wistar rats; conditions: PCP 1.5 mg/kg s.c.; for % PPI (Mean ± SEM): 0.3 mg/kg oral, 45 min before PPI (30 min before PCP), pre-pulse 63 dB, startle 110 dB; for effect on PCP-disrupted PPI response: oral administration 45 min before PPI
Protocol: Male Wistar rats (n=135) (200-300 g) were used. Animals are housed at a standard temperature (22±1° C.) and in a light-controlled environment (lights on from 7 am to 8 pm) with ad libitum access to food and water. Animals are treated with Phencyclidine (PCP) at 1.5 mg/kg, s.c., and tested in Pre-Pulse Inhibition (PPI) 15 min later. Oral administration of Compound B ((+)-isopropyl (Z)-7-[(1R,2R,3R,5S)-3,5-dihydroxy-2-(3-oxodecyl)cyclopentyl]hept-5-enoate) and Compound C ((E)-7-[(1R,2R)-2-(4,4-difluoro-3-oxooctyl)-5-oxocyclopentyl]hept-2-enoic acid) and corresponding vehicle was done 45 min before PPI, which means each compound or vehicle was administered 30 min before PCP injection.
as §1, with “63” for “60”

| Compound | % PPI (Mean ± SEM) [1] [%] | effect on PCP-disrupted PPI response [1] | % PPI (Mean ± SEM) [2] [%] | effect on PCP-disrupted PPI response [2] |
| --- | --- | --- | --- | --- |
| CCCCC(F)(F)C(=O)CC[C@H]1CCC(=O)[C@@H]1CCCCCCC(=O)O [Compound A, (−)-7-[(1R,2R)-2-(4,4-difluoro-3-oxooctyl)-5-oxocyclopentyl]heptanoic acid] | 34.2 ± 3.9 | improved the PCP-disrupted PPI response | – | – |
| CCCCCCCC(=O)CC[C@@H]1[C@@H](C/C=C\CCCC(=O)OC(C)C)[C@@H](O)C[C@H]1O [Compound B, (+)-isopropyl (Z)-7-[(1R,2R,3R,5S)-3,5-dihydroxy-2-(3-oxodecyl)cyclopentyl]hept-5-enoate] | 40.5 ± 4.2 | improved the PCP-disrupted PPI response | 24.0 ± 5.3 | improved the PCP-disrupted PPI response |
| CCCCC(F)(F)C(=O)CC[C@H]1CCC(=O)[C@@H]1CCCC/C=C/C(=O)O [Compound C, (E)-7-[(1R,2R)-2-(4,4-difluoro-3-oxooctyl)-5-oxocyclopentyl]hept-2-enoic acid] | – | – | 24.7 ± 5.0 | improved the PCP-disrupted PPI response |
